Test results from US20260167659A1, “STING AGONISTS” (LIGACHEM BIOSCIENCES INC., priority 2022, published 2026).

How the values were obtained:
hSTING H232 variant = biological target: T1, hSTING H232 variant (Homo sapiens, UniProt Q86WV6); assay: STING activation, THP1-Dual IRF3 reporter assay, hSTING-H232 cells; format: cell-based; details: IRF3 luciferase reporter, 24 hours, read-out: STING activity using hSTING-H232 cells, H232 EC50
T1 construct: host or cells: THP1-Dual cells (human monocytes) with knocked-in hSTING H232
Experimental: To assess potency of STING agonist compounds described herein, THP1-Dual™ Cells (NF—KB-SEAP and IRF-Lucia luciferase reporter monocytes, InvivoGen) were used. The reporter cells were knocked-in either of hSTING-WT (R232, #thpd-r232), HAQ variant (#thpd-nfis), or H232 variant (#thpd-h232). All cells were cultured at 37° C. in a humidified incubator at 5% CO2 and maintained in RPMI 1640 medium (Gibco, #22400097) supplemented with 10% heat-inactivated FBS and 1×Pen-Strep (Gibco, #15140122). To measure STING agonist-mediated IRF3 activity, the cells (9.0×10^4 cells per well) were seeded in a flat-bottomed 96-well plate. The next day, the cells were treated with compounds in a serial dilution for 24 hours. Subsequently, 20 μL of the cell culture supernatant and 50 μL of the QUANTI-Luc™ reagent (InvivoGen, #rep-qlc) were mixed in a 96-well white plate and then, luciferase activity was measured using an EnVision Xcite multilabel reader. The data were analyzed using Prism8 software (4-parameter).
The potency of STING agonist compounds was evaluated by the activation of Type I Interferon pathway using THP-1 IRF3 reporter assay.

[1] = Normal cell cytotoxicity in CD34+ HSC, CellTiter-Glo; format: cell-based; details: human, CD34+ hematopoietic stem cells (HSCs), read-out: In vitro cell cytotoxicity in CD34+ HSC CC50
Experimental: The CD34^+ hematopoietic stem cells (HSCs) were purchased from […]™ (#70002.3). The cells (2×10^4 cells per well) were cultured in StemSpan™ SFEM II medium supplemented with StemSpan™ CD34+ Expansion Supplement (#02691) in a 6-well plate at 37° C. for 7 days. On day 3 or 4, an equal volume of fresh complete medium was added into the cell culture. On day 7, the cells (4×10^4 cells per well) were seeded in a 96-well white plate and rested for 24 hours in the same condition.
After 72 hours, the cell viability was measured using CellTiter-Glo Luminescent Cell Viability Assay (Promega, #G7573) according to the manufacture's instruction. The signal was detected using an EnVision Xcite multilabel reader and data were analyzed using GraphPad Prism 8 software.

hSTING-WT (R232) = biological target: T2, hSTING-WT (R232) (Homo sapiens, UniProt Q86WV6, H232R); assay: STING activation, THP1-Dual IRF3 reporter assay, hSTING-R232 cells; format: cell-based; details: IRF3 luciferase reporter, 24 hours, read-out: STING activity using hSTING-R232 cells EC50
T2 construct: host or cells: THP1-Dual cells (human monocytes) with knocked-in hSTING R232
T2 sequence (Q86WV6 whole entry H232R): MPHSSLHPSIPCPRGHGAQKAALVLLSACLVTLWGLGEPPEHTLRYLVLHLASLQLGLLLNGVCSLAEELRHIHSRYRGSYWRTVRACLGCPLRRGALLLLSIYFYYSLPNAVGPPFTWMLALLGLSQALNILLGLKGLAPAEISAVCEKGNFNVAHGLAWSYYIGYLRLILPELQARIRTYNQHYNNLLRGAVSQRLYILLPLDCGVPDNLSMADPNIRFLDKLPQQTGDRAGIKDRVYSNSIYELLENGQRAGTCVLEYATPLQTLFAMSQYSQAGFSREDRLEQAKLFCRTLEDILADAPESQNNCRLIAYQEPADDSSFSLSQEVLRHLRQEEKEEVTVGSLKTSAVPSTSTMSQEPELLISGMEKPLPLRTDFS
Method in brief: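 THP1-Dual monocytes carrying knocked-in hSTING-WT (R232), H232 or HAQ variants were seeded at 9.0×10^4 cells per well and treated next day with serially diluted compounds for 24 h. Secreted IRF-Lucia luciferase in the supernatant was read by luminescence, and EC50 values were fitted with a 4-parameter model.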

human STING = biological target: T3, human STING (Homo sapiens, UniProt Q86WV6, H232R); assay: Direct STING binding, HUMAN STING WT BINDING KIT (Cisbio); details: direct binding to human STING WT protein in vitro; read-out: Binding potency EC50
T3 construct: purchased Cisbio 64BDSTGPEG
T3 sequence (Q86WV6 whole entry H232R): as above
Text: Additionally, for analysis of direct binding potency of STING agonist compounds described herein to human STING, HUMAN STING WT BINDING KIT (Cisbio, #64BDSTGPEG) was used according to the manufacture's instruction.

- EC50 (hSTING H232 variant): 216 nM
- EC50 (hSTING-WT (R232)): 68.3 nM
- EC50 (human STING): 0.08 nM
Structure (SMILES): CCn1nc(C)cc1C(=O)Nc1nc2cc(C(N)=O)cc(OC/C=C/Cn3cc(NC(=O)OCc4ccc(O[C@@H]5O[C@H](C(=O)O)[C@@H](O)[C@H](O)[C@H]5O)c(C(=O)NCCOCCOCCN(C)C)c4)cn3)c2n1C/C=C/Cn1c(NC(=O)c2cc(C)nn2CC)nc2cc(C(N)=O)cc(OCCCC(=O)O)c21 [Compound 313]
- CC50 at 72 h [1]: 44.5 nM
